These results are taken from patent publication US6436975B1, “Pharmaceutical compositions for ulcer” (Nicox S.A., priority 2000, dated 2002).

In assay [1] the test system is rats. In words: Anti-ulcer activity, gastric lesions by absolute ethanol. It counts as in vivo. The settings on record: oral, 15 minutes before absolute ethanol (1 ml), evaluated one hour later; cimetidine 50 mg/Kg, composition 70 mg/Kg.
In assay [2] the test system is Cells of the human umbilical vein. In words: Nitric oxide generation by chemiluminiscence, endothelial cells. The assay is classed as cell-based. The settings on record: incubation of 100 μM NO-donor, 5 minutes. As for the experimental part: (§1) Specifically the test relates to the nitric oxide generation from the NO-donors described in the present invention, among which, for instance nitroglicerin, nicorandyl, nitroprussiate, etc., when they are put in the presence of endothelial cells (method a) or platelets (method b)
The incubation medium (physiologic solvent, for example Tyrode) has been then analyzed to determine the capability to generate NO, by:
1) the nitric oxide disclosure by chemiluminiscence;
As regards the chemiluminiscence analysis, an amount equivalent to 100 ul was injected in the reaction chamber of a chemiluminiscence analyzer containing glacial acetic acid and potassium iodide. Nitrites/nitrates present in the medium under these conditions are converted into NO which is then determined after its reaction with ozone, with consequent light generation. As it usually occurs in the devices measuring the chemiluminiscence, the produced luminiscence is directly proportional to the generated NO levels and can be measured by the suitable photomultiplier unit of a chemiluminiscence analyzer.
The photomultiplier converts the incident light into electric voltage, which is then quantitatively recorded. On the basis of a calibration curve, prepared with scalar nitrite concentrations, it was possible to quantitatively determine the generated NO concentration. […]

In assay [3] the test system is Washed human platelets. As to the kind of experiment: Nitric oxide generation by chemiluminiscence, platelets. The assay is classed as cell-based. The settings on record: incubation of 100 μM NO-donor, 5 minutes. As for the experimental part:
as §1
Washed human platelets, prepared analogously with what described by Radomski et al, (Br.J. Pharmacol. 92, 639-1987), were used. 0.4 ml alicuots were incubated with scalar NO-donor concentrations (1-100 μg/ml) for 5 minutes. The incubation medium (e.g. Tyrode) was then analyzed to determine the capability to generate NO, by determination of nitric oxide bv chemiluminiscence and CGMP, with the modalities described in the previous paragraph, for the analyses carried out on the endothelial cells. As to the determination by chemiluminiscence, also in this case, on the basis of a calibration curve, prepared with scalar nitrite concentrations, it was possible to quantitatively determine the generated NO concentration. For example, after incubation of 100 μM of nicorandyl, an amount equal to 35 μM of NO was generated.

Structures are written as SMILES.

On to `CN/C(=N/CCSCc1nc[nH]c1C)NC#N` [Cimetidine], for which, in assay [1], the “Gastric Damage” value is given as 100%.

`O=C(NCCO[N+](=O)[O-])c1cccnc1` [nicorandyl, N-[2-(nitroxy)ethyl]-3-pyridine-carboxamide]: the “generated NO concentration” value in assay [2] is “about 10 μM”; in assay [3] it was 35 µM.
